The record followed here is publication PMC5971309, “Identification of Estrogen Receptor α Antagonists from Natural Products via In Vitro and In Silico Approaches” (Oxidative Medicine and Cellular Longevity, 2018).

Assay [1] relates to ERα. Briefly: Luciferase reporter gene assay for ERα in MCF-7 cells. The conditions noted are these: MCF-7 cells transfected with ERE-luc reporter, three concentrations, 24 h. It is filed as cell-based, human. Here is the method:
Cell transfection and luciferase activity assay were utilized to investigate the effects of the compounds on ER transcriptional activation. The human breast cancer cell line MCF-7 was obtained from the Beijing Key Laboratory of Drug Target Research and Drug Screening, Chinese Academy of Medical Sciences (Beijing, China). Dulbecco's Modified Eagle's Medium (DMEM) culture medium containing 10% fetal calf serum (FBS), 100 U/mL penicillin, and 100 μg/mL streptomycin was used as complete culture medium. The culture conditions were at 37°C, saturated humidity, and 5% CO2. The culture medium was changed every day and when the confluence of cells reached 90%, MCF-7 cells were digested with 0.25% trypsin containing 0.02% EDTA and then cultured under the same culture conditions. MCF-7 cells in logarithmic growth phase were resuspended in 3 mL complete culture medium and were seeded on 24-well plates with a density of 1 × 10^5/well overnight. After incubation for 24 h, cells were grown to approximately 60–80% confluence and then washed by culture medium without serum. MCF-7 cells were cotransfected with the reporter plasmid pGL2-ERE3-luc. Based on the manufacturer's instructions, transfection was mediated by lipofectamine 3000 (Invitrogen). After incubation for 12 h, transfection medium was eliminated, and MCF-7 cells were treated with three concentrations of compounds for 24 h. Then, MCF-7 cells were washed with phosphate-buffered saline (PBS) and cell lysis was collected after oscillation with a low speed. Finally, the luciferase activity was determined by dual-luciferase reporter assay system (Promega) according to the product manual.
(Reporter assays use an easily measured gene product as a stand-in for the process of interest.)

For assay [2], the target named is T1, ERα (Homo sapiens, UniProt P03372).
T1 construct: purchased Life Technologies
T1 sequence (P03372 1-595): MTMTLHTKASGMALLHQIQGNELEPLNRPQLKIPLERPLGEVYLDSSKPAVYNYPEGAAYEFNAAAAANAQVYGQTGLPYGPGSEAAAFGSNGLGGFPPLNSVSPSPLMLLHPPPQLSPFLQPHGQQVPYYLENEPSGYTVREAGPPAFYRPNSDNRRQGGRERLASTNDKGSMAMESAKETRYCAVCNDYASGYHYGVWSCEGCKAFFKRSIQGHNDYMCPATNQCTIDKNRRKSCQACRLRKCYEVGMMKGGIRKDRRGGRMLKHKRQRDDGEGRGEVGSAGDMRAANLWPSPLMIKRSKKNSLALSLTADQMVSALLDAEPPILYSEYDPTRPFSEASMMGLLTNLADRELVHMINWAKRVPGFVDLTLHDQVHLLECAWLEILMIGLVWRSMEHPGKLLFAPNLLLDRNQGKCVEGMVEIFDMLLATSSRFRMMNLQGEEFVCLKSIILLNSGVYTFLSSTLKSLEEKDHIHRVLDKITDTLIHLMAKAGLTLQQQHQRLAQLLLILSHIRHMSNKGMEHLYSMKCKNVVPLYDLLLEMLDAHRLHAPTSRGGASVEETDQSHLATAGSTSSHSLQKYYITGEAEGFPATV
The assay can be described thus: green PolarScreen ERα Competitor Assay (fluorescence polarization). Type of assay: binding. As for the experimental part:
The ERα binding affinities of representative compounds predicted as ERα antagonists were measured by fluorescence polarization procedure using green PolarScreen™ ERα Competitor Assay kit (Life Technologies, CA, United States of America). Briefly, 75 nM ERα together with 4.5 nM fluormone was mixed with a series of concentrations of the test compounds in the assay buffer. Then, they were incubated for 2 h in room temperature in black low volume 384-well assay plate with NBS surface (Corning, NY, United States of America) for fluorescence polarization assay. Subsequently, the detection wavelength was set at excitation wavelength 485 nm and emission wavelength 535 nm with bandwidths of 25/20 nm in EnVision Workstation version 1.7 (PerkinElmer, MA, United States of America). 2104 EnVision® Multilabel Plate Reader was performed for the measurements.
A general note: Polarisation of emitted light reports the rotation of a fluorescent probe.

[3] abbreviates: 75 nM ERα, 4.5 nM fluormone, 2 h, room temperature.

Bounds are passed on as bounds.

A word on the IC50: it is the concentration that gives 50% inhibition. Lower therefore signals inhibition by little substance.

Take `O=c1c(-c2ccc(O)cc2)coc2cc(O)cc(O)c12` [Genistein]: the “Antiestrogenic effects (ERα transactivation, luciferase activity)” value (from here on “Antiestrogenic effects”) in the assay on ERα [1] is recorded as “decrease the expression of the ERα remarkably at a dose-dependent manner”. The same measure, in the same setting: the entry for `O=c1c(-c2ccc(O)cc2)coc2cc(O)ccc12` [Daidzein] is “antagonist activity was lower than that of genistein”. For the compound `O=C(CCc1ccc(O)cc1)c1c(O)cc(O)cc1O` [Phloretin], the concentration for half-maximal inhibition (IC50) on ERα [2] (setting [3]) came out at 0.0745 ± 0.0242 µM. For the same compound, the “Antiestrogenic effects” value with ERα [1] is on record as “regulated the expression of ERα in MCF-7 cells in a dose-dependent way”. With `C[C@H]1[C@H](C)CC[C@]2(C(=O)O)CC[C@]3(C)C(=CC[C@@H]4[C@@]5(C)CC[C@H](O)C(C)(C)[C@@H]5CC[C@]43C)[C@H]12` [Ursolic acid], the “Antiestrogenic effects” value with ERα [1] is reported as “antiestrogenic effects only at high dose”. `O=C1C[C@@H](c2ccc(O)cc2)Oc2cc(O)cc(O)c21` [Naringenin]: at ERα [2] (setting [3]), the IC50 was found to be 0.968 ± 0.0709 µM. Besides, in the assay with ERα [1], the “Antiestrogenic effects” value was “weak antiestrogenic effects”. Consider `COc1ccc(-c2cc(=O)c3c(O)cc(O[C@@H]4O[C@H](CO[C@@H]5O[C@@H](C)[C@H](O)[C@@H](O)[C@H]5O)[C@@H](O)[C@H](O)[C@H]4O)cc3o2)cc1O` [diosmin], for which, on ERα [2] (values in μM), the IC50 was > 10 µM.

`COc1cc(C2Oc3cc([C@H]4Oc5cc(O)cc(O)c5C(=O)[C@@H]4O)ccc3OC2CO)ccc1O` (stereo partly shown) [silibinin]: the IC50 at ERα [2] (values in μM) was > 10 µM. `O=C(OC1Cc2c(O)cc(O)cc2OC1c1cc(O)c(O)c(O)c1)c1cc(O)c(O)c(O)c1` (single isomer, unassigned; (-)) [EGCG, (−)-epigallocatechin-3-gallate] showed an IC50 on ERα [2] (setting [3]) of 0.066 ± 0.0116 µM.

For the compound `C[C@@H]1O[C@@H](O[C@H]2[C@H](Oc3cc(O)c4c(c3)O[C@H](c3ccc(O)cc3)CC4=O)O[C@H](CO)[C@@H](O)[C@@H]2O)[C@H](O)[C@H](O)[C@H]1O` [naringin], the IC50 on ERα [2] (values in μM) was > 10 µM. On ERα [2] (setting [3]), `O=c1oc2c(O)c(O)cc3c(=O)oc4c(O)c(O)cc1c4c23` [Ellagic acid] came in with an IC50 of 0.0626 ± 0.00934 µM. The “Antiestrogenic effects” value in the assay with ERα [1] is “decrease the expression of ERα at high and medium concentrations”.
